# Patent US5679671A, “Amino acid derivative” (Eisai Co., Ltd., priority 1993, dated 1997)
# What was measured:
# ANP-treated SHR = assay: Diuretic effect on ANP-treated SHR, i.v. (Experiment C-4); type: in vivo, Spontaneously hypertensive male rats
# Procedure: 50 ng/kg/min of rat Atrial natriuretic peptide (r-ANP) was intravenously injected into Spontaneously hypertensive male rats (aged 14 to 16 weeks). When the hematogenic dynamics and the blood r-ANP level became stable 1 hour after the injection, the diuretic effect of each test compound was examined. The diuretic effect was determined by intravenously injecting the test compound and measuring an increase (% rate of change) in urinary accumulation within 20 minutes. As a comparative compound, [4S-[4α,7α(R*),12bβ]]-7-[(1-oxo-2(S)-thio-3-phenylpropyl)amino[-1,2,3,4,6,7,8,12b-octahydro-6-oxopyrido[2,1-a][2]benzazepine-4-carboxylic acid was used.
# NEP [1] = target: T1, NEP (Rattus norvegicus, UniProt P07861); assay: NEP inhibition activity (Experiment E-1); type: biochemical; parameters: membrane fraction prepared from rat renal cortex; from tissue; host or cells: rat renal cortex, membrane fraction (method of Booth and Kenny); settings: rat renal cortex membrane fraction
# T1 sequence (P07861 1-750): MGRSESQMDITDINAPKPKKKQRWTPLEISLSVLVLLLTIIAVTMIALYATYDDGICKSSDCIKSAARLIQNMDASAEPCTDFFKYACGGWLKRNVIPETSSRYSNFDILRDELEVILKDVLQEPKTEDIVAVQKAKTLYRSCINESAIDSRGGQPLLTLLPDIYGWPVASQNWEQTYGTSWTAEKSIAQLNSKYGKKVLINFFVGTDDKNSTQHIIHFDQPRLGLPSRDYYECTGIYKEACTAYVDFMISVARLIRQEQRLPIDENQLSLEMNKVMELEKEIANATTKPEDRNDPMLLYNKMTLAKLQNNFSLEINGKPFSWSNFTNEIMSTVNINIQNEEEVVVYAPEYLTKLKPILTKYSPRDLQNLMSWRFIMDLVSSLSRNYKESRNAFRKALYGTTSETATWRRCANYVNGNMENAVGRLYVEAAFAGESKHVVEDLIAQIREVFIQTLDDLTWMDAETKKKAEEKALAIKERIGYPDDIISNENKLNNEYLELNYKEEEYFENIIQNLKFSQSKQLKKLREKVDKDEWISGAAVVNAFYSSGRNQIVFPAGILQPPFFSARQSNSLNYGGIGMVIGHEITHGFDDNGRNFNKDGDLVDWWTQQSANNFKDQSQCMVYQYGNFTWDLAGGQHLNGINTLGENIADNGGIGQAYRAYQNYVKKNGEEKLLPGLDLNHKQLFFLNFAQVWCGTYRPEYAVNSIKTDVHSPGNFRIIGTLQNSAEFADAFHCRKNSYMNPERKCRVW
# Procedure: As a source of the enzyme NEP, a membrane fraction prepared from rat renal cortex in accordance with the method of Booth and Kenny (A Rapid Method for the Purification of Microvilli from Rabbit Kidney., Andrew G. Booth and A. John Kenny, Biochem. j., 1974, 142,575-581.) was employed. The NEP activity was determined in accordance with the method of Orlowsky and Wilk (Purification and Specificity of a Membrane-Bound Metalloendpeptidase from Bovine Pituitaries., Marian Orlowsky and Shrwin Wilk, Biochemistry, 1981, 20, 4942-4950.). Now the procedure will be briefly described.
# (§1) As a substrate, benzoyl-glycyl-arginyl-arginyl-2-naphthylamide (benzoyl-Gly-Arg-Arg-2 naphthylamide (Nova Biochem, Switzerland)) was used. In the presence of an NEP enzyme preparation and excessive leucine aminopeptidase (sigma chemical Co., U.S.A.), the liberated naphthylamine was made to undergo color development with first garnet (Sigma chemical Co., U.S.A.), followed by the measurement of the absorbance at a wavelength of 540 nm.
# To determine the NEP inhibition activity and the ACE inhibition activity, the inhibitor was added to the assay systems of both enzyme activities as described above in such a manner as to give the final concentrations of 1, 3, 10, 30, 100, […] and 1000 nM and inhibition curves were prepared. Then the concentration at which 50% inhibition was achieved was taken as IC50.
# NEP [2] = target: T1, NEP; assay: NEP inhibition activity (Experiment C-1); type: biochemical; settings: Table C-1
# Procedure: The NEP activity was determined by the following manner in accordance with the method of Orlowsky and Wilk (Purification and Specificity of a Membrane-Bound Metalloendpeptidase from Bovine Pituitaries., Marian Orlowsky and Shrwin Wilk, Biochemistry, 1981, 20, 4942-4950.).
# as §1, with “(benzoyl-Gly-Arg-Arg-2-naphthylamide” for “(benzoyl-Gly-Arg-Arg-2 naphthylamide”
# With respect to the NEP inhibition activity, the test compound was added to the experimental system as described above in such a manner as to give the final concentrations of 1, 3, 10, 30, 100, 300 and 1000 nM, an inhibition curve was prepared, and then the concentration at which 50% inhibition was achieved was taken as IC50. As a comparative compound, [4S-[4α,7α(R*),12bβ]]-7-[(1-oxo-2-(S)-thio-3-phenyl-propyl)amino]-1,2,3,4,6,7,8,12b-octahydro-6-oxopyrido-[2,1-a][2]benzazepine-4-carboxylic acid was used.
IC50 (NEP [1]),IC50 (NEP [2]),SMILES,increase (% rate of change) in urinary accumulation within 20 minutes (ANP-treated SHR; 0.03 mg/kg i.v.),increase (% rate of change) in urinary accumulation within 20 minutes (ANP-treated SHR; 0.1 mg/kg i.v.),increase (% rate of change) in urinary accumulation within 20 minutes (ANP-treated SHR; 0.3 mg/kg i.v.),increase (% rate of change) in urinary accumulation within 20 minutes (ANP-treated SHR; 0.01 mg/kg i.v.)
0.014 µM,0.0178 µM,"CC[C@H](C)[C@H](S)C(=O)N[C@H]1Cc2ccc(-c3ccccc3)cc2[C@H]2CCC[C@@H](C(=O)O)N2C1=O [Example C-14, [4S-[4α,7α(R*),12bβ]]-7-[[(2S,3S)-3-Methyl-1-oxo-2-thiopentyl]amino]-6-oxo-11-phenyl-1,2,3,4,6,7,8,12b-octahydropyrido[2,1-a][2]benzazepine-4-carboxylic acid]",240%,420%,470%,
0.0082 µM,,"CC(C)[C@H](S)C(=O)N[C@H]1Cc2ccc(-c3ccccc3)cc2[C@H]2CCC[C@@H](C(=O)O)N2C1=O [Example E-10, [4S-[4α,7α(R*),12bβ]]-7-[(S)-2-Mercapto-3-methylbutyrylamino]-6-oxo-11-phenyl-1,2,3,4,6,7,8,12b-octahydropyrido[2,1-a][2]benzazepine-4-carboxylic acid]",,,,
0.027 µM,0.027 µM,"O=C(N[C@H]1Cc2ccccc2[C@H]2CCC[C@@H](C(=O)O)N2C1=O)[C@@H](S)Cc1ccccc1 [Comp. cpd. E-1, [4S-[4α,7α(R*),12bβ]]-7-[(1-oxo-2-(S)-thio-3-phenyl-propyl)amino]-1,2,3,4,6,7,8,12b-octahydro-6-oxopyrido-[2,1-a][2]benzazepine-4-carboxylic acid, reference compound]",220%,370%,360%,

# More lines, now with the values behind:
SMILES,IC50 (NEP [1]),IC50 (NEP [2]),increase (% rate of change) in urinary accumulation within 20 minutes (ANP-treated SHR; 0.03 mg/kg i.v.),increase (% rate of change) in urinary accumulation within 20 minutes (ANP-treated SHR; 0.1 mg/kg i.v.),increase (% rate of change) in urinary accumulation within 20 minutes (ANP-treated SHR; 0.3 mg/kg i.v.),increase (% rate of change) in urinary accumulation within 20 minutes (ANP-treated SHR; 0.01 mg/kg i.v.)
"CC[C@H](C)[C@H](S)C(=O)N[C@H]1CCc2ccccc2N(CC(=O)O)C1=O [Example A-11, (S)-3-[(2S,3S)-2-Mercapto-3-methylvarelylamino]-1-carboxymethyl-2,3,4,5-tetrahydro-1H-[1]benzazepin-2-one]",,0.0062 µM,390%,460%,,220%
"CC[C@H](C)[C@H](S)C(=O)NC1CCc2ccccc2N(CC(=O)O)C1=O (stereo partly drawn) [Example A-9, 1-Carboxymethyl-3-[(2S,3S)-2-mercapto-3-methylvarelylamino]-1H-[1]benzazepin-2-one]",,0.0125 µM,,,,
"CC[C@H](C)[C@H](S)C(=O)N[C@H]1CCC[C@H]2SC[C@@H](C(=O)O)N2C1=O [Example C-8, [3R-[3α,6α,(S*),9aβ]]-6-[[(2S,3S)-3-methyl-1-oxo-2-thiopentyl]amino]-octahydro-5-oxothiazol[3,2-a]-azepine-3-carboxylic acid]",,0.0134 µM,280%,340%,,200%
